One block for each molecule: values may come before it.
Assays:
[1] = Stabilization with multi-charged species: redissolving the DV-CHX precipitate; type: physicochemical; conditions: with significant stirring time
From the text: Stabilization with Multi-Charged Species: The addition of DV to a solution of CHX causes an immediate precipitation. However, the addition of low levels of surfactants or multi-charged compounds brings both DV and CHX back into solution. The table below lists multiple compounds that help to redissolve the DV-CHX, and what we have found as their lowest effective levels. These solutions are stable from pH 4.9-7. Addition of citric acid to lower the pH to <4.9 causes significant precipitation.

[2] = system: mixed species inoculum culture containing: Lactobacillus casei, Streptococcus oralis, Actinomyces viscosus, Veillonella parvula & Fusobacterium nucleatum; type: cell-based
Procedure: Bacterial kill: A 20-second short interval kill test (SIKT) measures the efficacy of various treatment solutions in killing oral pathogens. […] A mixed species inoculum culture containing: Lactobacillus casei, Streptococcus oralis, Actinomyces viscosus, Veillonella parvula & Fusobacterium nucleatum at an optical density of 0.5 @ 610nm is centrifuged. The supernatant is then aspirated off and the remaining pellicle re-suspended in sterile phosphate buffered saline (PBS). 100 ul of this solution is then treated with 100 ul of test sample for 30 or 60 seconds. Immediately following treatment, the exposure is neutralized by adding 1.3 ml of sterile D/E neutralizing broth. The neutralizing broth is then rinsed off by centrifugation and re-suspension in PBS. 50 ul samples are then transferred in triplicate to a 96-well microplate. The fluorescent dyes are then prepared per the manufacturer's directions and added to the samples. The fluorescence is then measured in a fluorescent plate reader. Data from this assay are presented as a percentage of bacterial remaining viable relative to a control sample treated with PBS.

[3] = aqueous solution, no net charge; cited from earlier work

Lowest effective level ([1]; added to solution of 0.12% CHX and 1.025 DV (w/w by actives)): 0.3% for 0.12% CHX
Lowest effective level ([1]; added to solution of 0.2% CHX and 1.025 DV (w/w by actives)): 0.3% for 0.2% CHX
SMILES: C[N+](C)(C)CC(=O)O [Betaine]

SMILES: CCO [Dead, ethanol]
% viability [2]: 36.3%

SMILES: NCCCC[C@H](N)C(=O)O [lysine]
isoelectric point [3]: 9.7 pH

Reference: patent US12257334B2, “Oral care compositions” (Colgate-Palmolive Company, priority 2015, dated 2025)
